Legend:
[1] = system: LPL of the present invention produced by Streptomyces 7825; experiment: Inhibition of the LPL; format: biochemical
[2] = system: LPL of the present invention produced by Streptomyces 7825; experiment: Substrate specificity of the LPL on lipoproteins consisting of various triglycerides; format: biochemical; conditions: relative to olive oil as a standard (100%)
Description: In Table 1, the activity is expressed relative to an olive oil as a standard (100%).
Titer determination is principally based on the quantitative determination of glycerol formed through the action of LPL on artificial lipoprotein prepared from olive oil as described in Clin. Chim. Acta., Vol. 22, p.
A mixture of 5 g of olive oil and 5 ml of a 5% (v/v) Triton X-100 solution is subjected to ultrasonication for 10 minutes to prepare a substrate emulsion.
Seventy microliters of the abovementioned substrate solution, 20 μl of a 0.5M glycine buffer (pH 8.5), 50 μl of 10% (w/v) BSA, and 55 μl of water are mixed in a test tube, and the system is preheated at 37° C. 5 μl of an enzyme solution having an enzyme concentration adjusted to about 10 U/ml, is added to the system. The system is then allowed to react at 37° C. for 10 minutes. After completion of the reaction, the test tube is soaked in boiling water to stop the reaction. After allowing the test tube to cool, 400 μl of isopropanol is added to the reaction system, followed by stirring. The mixture is then centrifuged. 2 ml of isopropanol is then added to 100 μl of the supernatant liquor. The solution is mixed with 1 ml of the above prepared metaperiodic acid solution and 0.5 ml of the above prepared acetylacetone solution to effect a reaction at 50° C. for 30 minutes. The absorbance of the system at 405 nm is measured. A blank estimation (control) is run on a system containing no enzyme solution.
From the measured values, a calibration curve is prepared using a glycerol solution having a known concentration. Thus the glycerol content of the reaction mixture is determined using the prepared calibration curve.
The enzyme activity is expressed by taking the amount of the enzyme which forms 1 μmol of glycerol per minute as 1 U.

Row | Molecule | Relative Activity [2] | also measured
1 | [Cl-].[Na+] [NaCl] | – | inhibition of LPL ([1]; 3M NaCl): about 40%
2 | CC(=O)OCC(COC(C)=O)OC(C)=O [Triacetin] | 28% | –
3 | CCCC(=O)OCC(COC(=O)CCC)OC(=O)CCC [Tributyrin] | 22% | –
4 | CCCCCCCCCC(=O)OCC(COC(=O)CCCCCCCCC)OC(=O)CCCCCCCCC [Tricaprin] | 153% | –
5 | CCCCCC(=O)OCC(COC(=O)CCCCC)OC(=O)CCCCC [Tricaproin] | 46% | –
6 | CCCCCCCC(=O)OCC(COC(=O)CCCCCCC)OC(=O)CCCCCCC [Tricaprylin] | 148% | –
7 | CCCCCCCCCCCC(=O)OCC(COC(=O)CCCCCCCCCCC)OC(=O)CCCCCCCCCCC [Trilaurin] | 234% | –
8 | CCCCCCCC/C=C\CCCCCCCC(=O)OCC(COC(=O)CCCCCCC/C=C\CCCCCCCC)OC(=O)CCCCCCC/C=C\CCCCCCCC [Triolein] | 75% | –
9 | CCCCCCCCCCCCCCCC(=O)OCC(COC(=O)CCCCCCCCCCCCCCC)OC(=O)CCCCCCCCCCCCCCC [Tripalmitin] | 99% | –
10 | CCCCCCCCCCCCCCCCCC(=O)OCC(COC(=O)CCCCCCCCCCCCCCCCC)OC(=O)CCCCCCCCCCCCCCCCC [Tristearin] | 29% | –
11 | C[C@H](CCC(=O)O)[C@H]1CC[C@H]2[C@@H]3CC[C@@H]4C[C@H](O)CC[C@]4(C)[C@H]3C[C@H](O)[C@]12C [deoxycholic acid] | – | inhibition of LPL ([1]; 10 mM deoxycholic acid): about 40%
12 | protamine sulfate | – | inhibition of LPL ([1]; 400 μg/ml protamine sulfate): about 30%

From US5232846A, “Method for producing a thermostable lipoprotein lipase from streptomyces” (Unitika Ltd., priority 1988, dated 1993)
